Measured values as given in ChEMBL document CHEMBL1156829 (Proc Natl Acad Sci U S A, 2008).

Assays:
[1] = tested on: Plasmodium falciparum; test: NOVARTIS: Inhibition of Plasmodium falciparum W2 (drug-resistant) proliferation in erythrocyte-based infection assay; type: functional, organism-based; settings: Plasmodium falciparum, W2; read-out: EC50
[2] = NOVARTIS: Cytotoxicity against human hepatocellular carcinoma cell line (Huh7); type: toxicity, cell-based, Huh-7; settings: Huh7 cells (hepatocellular carcinoma cell line)
[3] = tested on: Plasmodium falciparum; test: NOVARTIS: Inhibition of Plasmodium falciparum 3D7 (drug-susceptible) proliferation in erythrocyte-based infection assay; type: functional, organism-based; settings: Plasmodium falciparum, 3D7

Row | Structure (SMILES) | EC50 [1] | CC50 [2] | EC50 [3]
1 | CC1CC(C)CN(CCCNc2ccc(C(=O)Nc3ccc(C(F)(F)F)cc3)cc2[N+](=O)[O-])C1 (configuration not stated) | 0.401 µM | > 100 µM | 0.119 µM
2 | O=C(N1CCCCC1)n1nnc2ccccc21 | 0.396 µM | > 100 µM | 1.31 µM
3 | COC(=O)c1ccc(C2C3=C(CC(c4ccc(OC)cc4)CC3=O)Nc3ccccc3N2C(=O)c2ccccc2)cc1 (configuration not stated) | 0.368 µM | > 100 µM | 0.427 µM
4 | CCC(C)NCC(O)(c1ccc(Cl)cc1)c1ccc(Cl)cc1 (configuration not stated) | 0.184 µM | 46.3 µM | 0.639 µM
5 | Cc1cc(N2CCC(C)CC2)nc(-n2nc(C)cc2C)n1 | 0.382 µM | > 100 µM | 1.09 µM
6 | O=C(NC(c1ccccc1)c1ccc2cccnc2c1O)c1ccccc1 (configuration not stated) | 0.376 µM | > 100 µM | 0.533 µM
7 | COc1ccc(-n2nc(C(=O)NCc3ccccc3OC)c3ccccc3c2=O)cc1 | 0.39 µM | > 100 µM | 0.377 µM
8 | Fc1cccc2sc(Nc3nc(-c4ccccn4)cs3)nc12 | 0.0958 µM | 24.7 µM | 0.321 µM
9 | CCC1(C)CC(CCNCc2ccccc2O)(c2ccccc2OC)CCO1 (configuration not stated) | 0.0961 µM | 23.9 µM | 0.348 µM
10 | Cc1cc(Nc2ccc(C)c(C)c2)n2nc(C)nc2n1 | 0.378 µM | > 100 µM | 0.183 µM
11 | O=C1CN(C(=O)CCC2CCCC2)C(c2ccc(F)cc2)c2cc(F)ccc2N1 (configuration not stated) | 0.23 µM | 60.3 µM | 0.666 µM
12 | O=C(Cc1ccccc1)NC(c1ccccc1)c1ccc2cccnc2c1O (configuration not stated) | 0.382 µM | > 100 µM | 0.423 µM
13 | CCOc1cc(-c2nnc3[nH]c(=O)n(C)c(=O)c3n2)ccc1OC(C)C | 0.394 µM | > 100 µM | 1.1 µM
14 | CC(=O)Oc1ccccc1-c1nc2ccccn2c1NC(C)(C)CC(C)(C)C | 0.0367 µM | > 9.44 µM | 0.489 µM
15 | Cc1cc(C(C)(C)C)cc(S(=O)(=O)NCCO)c1C | 0.377 µM | > 100 µM | > 12.5 µM
16 | CCN1CCN(Cc2c(O)ccc3c(=O)c(Oc4ccccc4Br)c(C(F)(F)F)oc23)CC1 | 0.377 µM | > 100 µM | 1.39 µM
17 | Nc1c(C(=O)Nc2ccc(F)cc2)sc2nc3c(c(-c4cccs4)c12)CCCCC3 | 0.388 µM | > 100 µM | 0.937 µM
18 | C=CC[N+]1(CC#Cc2cccc3ccccc23)CCCCC1 | 0.396 µM | > 100 µM | 0.683 µM
19 | CCOc1ccccc1NC(=O)Cn1c(=O)n(Cc2ccccc2)c(=O)c2c(C)c(C(=O)N(C)C)sc21 | 0.377 µM | > 100 µM | 0.883 µM
20 | Cn1c(-c2ccc([N+](=O)[O-])cc2)[n+](C)c2ccccc21 | 0.376 µM | > 100 µM | 1.31 µM
21 | CC(C)CCNCC(O)Cn1c2ccccc2c2ccccc21 (configuration not stated) | 0.0323 µM | 8.06 µM | 0.201 µM
22 | CCCC(=O)N1CCN(c2nc(Cc3ccccc3)c3c(c2C#N)CC(C)(C)OC3)CC1 | 0.363 µM | > 90.9 µM | 0.324 µM
23 | Cc1c(C)n(Cc2ccc(F)cc2)c2ccc(C(=O)NCc3ccco3)cc12 | 0.399 µM | > 100 µM | 0.0782 µM

Row | Structure (SMILES) | EC50 [1] | CC50 [2] | EC50 [3]
24 | CCOc1cc2c(cc1OCC)C(c1cc(Cl)ccc1O)NCC2 (configuration not stated) | 0.0964 µM | 24.2 µM | 0.404 µM
25 | C#CCNC(=O)c1ccc(OC2CCN(CC3CCCCC3)CC2)c(Cl)c1 | 0.396 µM | > 100 µM | 0.499 µM
26 | CN(CCCNc1ccnc2cc(Cl)ccc12)C(=O)COc1ccc(Cl)cc1 | 0.0785 µM | 20.3 µM | 0.0592 µM
27 | CCOC(=O)c1ccc2c(c1)[C@@H]1C=CC[C@@H]1[C@H](c1ccc(OC)c([N+](=O)[O-])c1)N2 | 0.376 µM | > 100 µM | 0.39 µM
28 | CN(c1ncnc2sc3c(c12)CCCC3)C1CCCCC1 | < 0.0374 µM | > 10 µM | > 0.921 µM
29 | COc1cc(Cl)c(C)cc1NC(=O)C1c2ccccc2C(=O)N(CC(C)C)C1c1cccs1 (configuration not stated) | 0.373 µM | > 100 µM | 0.578 µM
30 | CC[n+]1c(C=C2C=C(C)OC(C)=C2)sc2ccccc21 | 0.119 µM | > 32 µM | 0.147 µM
31 | C=CCn1nc(C(=O)N2CCCC2)c2c1CCC(N1CCCCCC1)C2 (configuration not stated) | 0.0398 µM | > 10 µM | 0.772 µM
32 | COc1ccc(-c2csc(Nc3cccc(Cl)c3C)n2)cc1OC | 0.355 µM | > 89.3 µM | 8.21 µM
33 | CCC(C)OC(=O)C1=C(C)NC2=C(C(=O)CC(c3ccc(Cl)cc3)C2)C1c1cccc(O)c1 (configuration not stated) | 0.147 µM | 39.6 µM | 1.02 µM
34 | Fc1ccc(-c2c[n+](Cc3ccc(Cl)cc3)c3n2CCC3)cc1 | 0.37 µM | > 100 µM | 1.14 µM
35 | O=C(c1ccc([N+](=O)[O-])cc1)N1CCC(c2nc(O)c3nnn(Cc4c(F)cccc4Cl)c3n2)CC1 | 0.401 µM | > 100 µM | 0.21 µM
36 | CCCCC(=O)Oc1ccccc1-c1nc2ccccn2c1NC(C)(C)CC(C)(C)C | < 0.0071 µM | 1.92 µM | 0.296 µM
37 | COc1ccc2c(c1)N(C(=O)CSc1nc3ccccc3o1)C(C)(C)c1ssc(=S)c1-2 | 0.392 µM | > 100 µM | 0.345 µM
38 | C=CCc1cc(C=c2sc3n(c2=O)C(c2ccccc2)C(C(=O)OCC)=C(C)N=3)cc(OC)c1O (configuration not stated) | 0.391 µM | > 100 µM | 2.5 µM
39 | CCN1CCN(c2nc3ccccn3c(=O)c2C=C2SC(=S)N(C(C)C)C2=O)CC1 | 0.304 µM | 79 µM | 0.701 µM
40 | COc1ccc2nc(C)cc(NN=Cc3cccc(OC)c3O)c2c1 | 0.0235 µM | 6.12 µM | 0.0251 µM
41 | CCc1cc(=O)n(C)c(SC(CC)C(=O)Nc2ccc(F)cc2)n1 (configuration not stated) | 0.383 µM | > 100 µM | 0.484 µM
42 | O=C1CC(c2ccc(O)cc2)C2=C(CC(c3ccccc3Cl)CC2=O)N1 (configuration not stated) | 0.391 µM | > 100 µM | 0.672 µM
43 | Cc1c(Cl)cccc1NC(=S)N1CCCN(c2ccc(C(F)(F)F)cc2[N+](=O)[O-])CC1 | 0.202 µM | 51.4 µM | 0.254 µM
44 | Cn1c(SCCCCNC(=O)c2cc([N+](=O)[O-])cc([N+](=O)[O-])c2)nc(-c2ccccc2)c1-c1ccccc1 | 0.0337 µM | > 8.57 µM | 1.41 µM
45 | Cc1ccn2c(NC(C)(C)CC(C)(C)C)c(-c3ccccc3OC(=O)c3cccs3)nc2c1 | 0.0393 µM | > 10 µM | 0.667 µM
46 | CC(C)CSc1nc2sc3c(c2c(=O)n1-c1ccccc1)CCN(Cc1ccccc1)C3 | 0.392 µM | > 100 µM | 0.945 µM

Row | Structure (SMILES) | EC50 [1] | CC50 [2] | EC50 [3]
47 | CN(C)CCNc1c2c(nc3ccccc13)CCC2 | 0.241 µM | 61.4 µM | 0.579 µM
48 | Cc1ccccc1N=Nc1ccc(NC(=O)c2ccco2)c(C)c1 | 0.272 µM | 72.2 µM | 0.402 µM
49 | Cc1ccc(-c2nn3c(O)c4c(nc3c2C)CCCC4)cc1 | 0.384 µM | > 100 µM | 0.256 µM
50 | C=CCn1c(=N)n(CC(O)c2ccc(Cl)c(Cl)c2)c2ccccc21 (configuration not stated) | 0.0583 µM | 14.7 µM | 0.141 µM
51 | Cc1cc(=O)oc2c1ccc1oc(C(=O)c3ccccc3)c(C)c12 | 0.392 µM | > 100 µM | 0.441 µM
52 | COc1cc(C=CC(=O)Nc2c3c(nn2-c2ccc(F)cc2)CSC3)cc(OC)c1OC | 0.381 µM | > 100 µM | 0.918 µM
53 | CCC1CCCCN1C(=O)C1CC(=O)N(c2ccc(OC)cc2)C1c1ccc(OC)cc1 (configuration not stated) | 0.394 µM | > 100 µM | 0.387 µM
54 | COc1cc(C=NNc2nc3ccccc3[nH]2)cc(OC)c1OC | 0.339 µM | 87.5 µM | 0.176 µM
55 | CCOc1cccc(Nc2c3c(nc4ncnn24)CCC3)c1 | 0.374 µM | > 100 µM | 0.597 µM
56 | NC(=S)NN=CC(=NNC(N)=S)c1ccccc1 | 0.0376 µM | > 10 µM | 0.0481 µM
57 | O=C(NC(=CC=Cc1ccccc1)C(=O)N1CCCCC1)c1ccc([N+](=O)[O-])cc1 | 0.392 µM | > 100 µM | 8.29 µM
58 | Cc1cc(C)c2c(c1)-c1c(ssc1=S)C(C)(C)N2C(=O)c1ccccc1 | 0.37 µM | > 100 µM | 0.523 µM
59 | CCC12C(=O)C(CC)(C(c3ccccc3)=C1c1ccccc1)C1C(=O)N(c3cccc(C(F)(F)F)c3)C(=O)C12 (configuration not stated) | 0.401 µM | > 100 µM | 2.41 µM
60 | O=C(Nc1ccc(-c2nc3ccccc3[nH]2)cc1)c1cccc(C(=O)Nc2ccc(-c3nc4ccccc4[nH]3)cc2)n1 | 0.126 µM | 31.7 µM | 0.121 µM
61 | Cc1onc(-c2ccccc2)c1C(=O)N1CCC(CNc2c(-c3ccc(F)cc3)nc3ccccn23)CC1 | 0.178 µM | 45 µM | 0.674 µM
62 | Cc1c2ccccc2cc(Cc2ccccc2)[n+]1C | 0.369 µM | > 100 µM | 0.488 µM
63 | Cc1ccccc1Oc1cc(NC(=O)c2cc3n(n2)C(C(F)(F)F)CC(c2ccccc2)N3)cc(Oc2ccccc2C)c1 (configuration not stated) | 0.38 µM | > 100 µM | 0.359 µM
64 | O=C(NN=Cc1c(O)ccc2ccccc12)c1cccnc1 | 0.373 µM | > 100 µM | 0.875 µM
65 | Cc1cc(C(=O)Nc2cnn(Cc3ccc(Cl)cc3Cl)c2)no1 | 0.371 µM | > 100 µM | 0.62 µM
66 | CCCCN(C(=O)CCC(=O)Nc1cc(C)on1)C(C(=O)NC1CCCC1)c1ccc(C)o1 (configuration not stated) | 0.0369 µM | > 10 µM | 0.0222 µM
67 | COc1cc(C2c3[nH]c4ccccc4c3C[C@H]3C(=O)N(CCc4ccccc4)CC(=O)N23)cc(OC)c1OC (some centres not stated) | 0.374 µM | > 100 µM | 0.611 µM
68 | C=CCn1c(=O)c(C(=O)NCC[N+](CC)(CC)CC=C)c(O)c2ccccc21 | 0.385 µM | > 100 µM | 1.13 µM
69 | CSc1ccccc1CN1CCc2nc(N3CCCCC3)sc2C1 | 0.0381 µM | > 10 µM | 0.369 µM
